Data from article PMC10115881, “Disrupting the α-synuclein-ESCRT interaction with a peptide inhibitor mitigates neurodegeneration in preclinical models of Parkinson’s disease” (Nature Communications, 2023).

Experiments:
[1] = system: WT a-syn-mediated cytotoxicity in HEK293 cells; assay: Pooled lentiviral 7-mer peptide cytotoxicity screen, WT a-syn + MG132; format: cell-based, human;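 on Slope Norm Reads: reads normalized to total peptide reads per sample with scalar factor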
Source text: We used a lentiviral library of 50,549 7-mer peptides enriched in PPI motifs[13] on a green fluorescent protein (GFP) scaffold (Fig. 1A). We infected cells in a pooled format and the amino acid sequence of each peptide served as its own barcode. By using a low multiplicity of infection followed by puromycin selection, each infected cell expressed one unique GFP-peptide. We screened for peptides that reduced a-syn-mediated cytotoxicity or a-syn oligomers in parallel (Fig. 1A). To cause cytotoxicity relevant to PD, we induced proteostatic stress in HEK293 cells by inhibiting the proteasome with MG132 and overexpressing human WT a-syn associated with idiopathic PD in one screen or the more toxic mutant A53T a-syn associated with familial PD in a second screen. This combination of a-syn overexpression and pharmacological proteasome inhibition led to death of most cells, with only those that expressed a protective peptide surviving. By extracting genomic DNA from the surviving cells and amplifying the peptide coding sequences, we identified the protective peptides (Fig. 1A). To detect a-syn oligomers, we used a protein fragment complementation assay (PCA) of a-syn oligomerization in HEK293 cells. In this assay, human A53T a-syn was fused to either the C- or N-terminal half of yellow fluorescent protein (YFP). No fluorescence is detectable while a-syn exists in monomers but, when a-syn oligomerizes, the two halves of YFP come in close enough proximity to form a functional, spontaneously fluorescent protein. […] Our screens yielded 10 hits (Table S1). The hit with the most reads (i.e., the most abundant) was the same peptide in all screens: IPIQLKA (named PDpep1) (Table S1). We validated the cytoprotective effects of PDpep1 in HEK293 cells overexpressing WT or A53T a-syn (Figs. 1B, S1A), as well as its ability to reduce WT or A53T a-syn oligomers in a luciferase-based PCA[18]–[20] compared to a scrambled control peptide (Figs. 1C, S1B).
HEK293T cells (ATCC, CRL-3216) were maintained in DMEM supplemented with 10% FBS and 1% pen/strep/glutamine, and the appropriate selection antibiotics when required. Lentiviruses were made in a 15 cm dish format by transfecting packaging cells (HEK293T) with a three-plasmid system (expression vector, psPAX2 and pMD2.G) and using Polyjet DNA transfection reagent (FroggaBio, SL100688.1). Viral transduction of HEK293T cells were performed with a multiplicity of infection (MOI) of 0.3. Infected cells were selected in puromycin-containing medium to eliminate uninfected cells and three aliquots of cells were collected for sampling of the initial (T0) cell population. Cells were treated with MG132 at concentrations of 0, 10, 25, or 50 µM. For the cell viability screen, surviving cells were collected and gDNA was extracted for identification of peptide inhibitors of cell toxicity. For the inhibition of a-syn aggregation screen, a protein fragment complementation assay (PCA) was used by transfecting cells with split YFP-a-syn constructs following stable expression of the peptides. Cells were sorted based on their YFP fluorescence intensities with a FACSVantage SE cell sorter (BD Bioscience) and gDNA was extracted for identification of peptides.
Genomic DNA (gDNA) from peptide expressing cells at different time-points was extracted using QIAamp DNA Blood Mini Kit. PCR amplifications of peptides from gDNA in parallel with the lentiviral plasmid library (naïve library) were performed using indexed Illumina PCR primers to incorporate both the Illumina adapter sequences and indexing sequences. Each 50 μl reaction contained 3.2 μg of template, 2× PCR buffer, 2× enhancer solution, 300 μM each dNTP, 900 nM each of Adapter A (5′-[…]-[…]-3′) and Adapter B (5′-[…]-[…]-3′), 1 mM MgSO4, 3.75 units of Platinum Pfx polymerase, and water to 50 μl. […]

full-length YFP = assay: YFP fluorescence in rat cortical neurons, full length YFP; format: cell-based
Source text: Adeno-associated virus (AAV) of a 1/2 serotype was used to express A53T a-syn (AAV-A53T), a truncated version of A53T a-syn lacking amino acids 103–140 (Δa-syn(103–140)), and WT a-syn, fused to either the N-terminal half of YFP (AAV-V1S) or the C-terminal half of YFP (AAV-SV2), all under the control of the CAG promoter, a hybrid of the chicken beta-actin (CBA) promoter fused with the cytomegalovirus (CMV) immediate early enhancer sequence (GeneDetect Ltd.)[46].
Pregnant rats (E17) of the Sprague-Dawley strain were purchased from Envigo. Embryos were surgically removed from the mothers and cortices dissected in Hanks Balanced salt solution (Gibco). […]
Confocal images of primary cortical neurons, iPSC-derived dopaminergic neurons, and LAMP1 staining within the SN were processed using Imaris software (Oxford instruments). […] Mean pixel intensity per GFP^+ cell (for experiments using GFP-tagged peptides) or RFP^+ cell (for experiments using RFP-tagged peptides) was calculated for a-syn or LAMP1 signal using the software’s surfaces module. The software’s surfaces module was used to identify GFP^+/NeuN^+ cells, and number of pS129 a-syn^+ puncta per GFP^+/NeuN^+ cortical neuron was counted using the software’s spots module. Mean pixel intensity per RFP^+/NeuN^+ cortical neuron was calculated for Rab7, cathepsin B, or cathepsin D signals using the software’s surfaces module. […]

Substance	Reads 10M MG132 [1]	Reads 25M MG132 [1]	Reads 50M MG132 [1]	Slope Norm Reads [1]	Reads 0M MG132 ([1]; Illumina reads, average Phred >30)	Effect on YFP fluorescence, full-length YFP (full-length YFP)
IPIQLKA [PDpep1, initial screen hit peptide IPIQLKA]	1	1629	3375	3.45	90	
DEEIERQLKALG [PDpep1.3]						had no effect on fluorescence of YFP alone
